Patent publication US20090054412A1, “Treatment of Sleep Disorders” (priority 2007, published 2009)
Entries after “also recorded” stand apart in the source; their conditions may differ.

Experiments:
[1] = target: T1, rat GABAA receptors α1β2γ2 (Rattus norvegicus, UniProt P18508+P62813); assay: Stimulation of GABA (EC3-5)-elicited currents in Xenopus oocytes, two-electrode voltage clamp, α1β2γ2; format: cell-based
T1 construct: expressed in transfected cells; host or cells: Xenopus laevis oocytes, cRNA microinjected
T1 sequence (P62813 28-455): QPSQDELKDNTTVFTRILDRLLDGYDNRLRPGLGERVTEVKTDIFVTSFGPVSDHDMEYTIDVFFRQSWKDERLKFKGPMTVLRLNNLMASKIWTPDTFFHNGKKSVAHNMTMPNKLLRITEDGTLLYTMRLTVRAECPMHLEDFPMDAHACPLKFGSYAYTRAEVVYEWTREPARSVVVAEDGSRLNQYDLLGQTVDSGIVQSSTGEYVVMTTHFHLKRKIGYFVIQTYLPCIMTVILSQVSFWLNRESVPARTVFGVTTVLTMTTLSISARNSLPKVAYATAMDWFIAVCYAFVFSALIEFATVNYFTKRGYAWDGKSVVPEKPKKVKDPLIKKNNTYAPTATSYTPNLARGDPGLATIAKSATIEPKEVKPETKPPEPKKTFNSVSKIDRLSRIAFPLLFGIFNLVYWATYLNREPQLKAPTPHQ
T1 sequence (P63138 25-474 partner limits assumed): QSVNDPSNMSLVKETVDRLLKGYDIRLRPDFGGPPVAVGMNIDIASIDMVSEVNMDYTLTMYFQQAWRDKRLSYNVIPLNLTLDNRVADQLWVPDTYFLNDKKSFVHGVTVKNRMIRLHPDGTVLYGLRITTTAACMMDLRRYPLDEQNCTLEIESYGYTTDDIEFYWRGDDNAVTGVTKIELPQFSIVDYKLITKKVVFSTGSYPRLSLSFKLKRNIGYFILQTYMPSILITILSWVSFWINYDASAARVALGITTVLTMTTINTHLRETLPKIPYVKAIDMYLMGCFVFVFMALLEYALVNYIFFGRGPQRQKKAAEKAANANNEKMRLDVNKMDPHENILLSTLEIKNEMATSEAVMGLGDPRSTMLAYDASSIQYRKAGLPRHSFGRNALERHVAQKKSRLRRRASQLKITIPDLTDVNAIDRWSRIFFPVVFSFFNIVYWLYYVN
T1 sequence (P18508 39-466): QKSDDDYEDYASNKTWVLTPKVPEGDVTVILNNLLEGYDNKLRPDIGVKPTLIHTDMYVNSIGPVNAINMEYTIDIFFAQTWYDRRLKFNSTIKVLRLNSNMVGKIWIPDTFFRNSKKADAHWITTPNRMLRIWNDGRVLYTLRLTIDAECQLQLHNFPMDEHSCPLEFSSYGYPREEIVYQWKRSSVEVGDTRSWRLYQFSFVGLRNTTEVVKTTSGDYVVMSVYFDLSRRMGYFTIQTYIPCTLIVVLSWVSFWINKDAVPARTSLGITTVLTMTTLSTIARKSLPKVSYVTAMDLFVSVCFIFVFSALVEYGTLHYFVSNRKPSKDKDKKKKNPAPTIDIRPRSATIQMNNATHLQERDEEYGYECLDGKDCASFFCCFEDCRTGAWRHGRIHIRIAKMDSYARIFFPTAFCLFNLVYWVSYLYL
Source text: 7-Chloro-3-(5-dimethylaminomethyl-[1,2,4]oxadiazol-3-yl)-5methyl-4,5-dihydro-imidazol[1,5,-a][1,4]benzodiazepine-6-one was used to test the effects of the compound of formula (II): […]
Similar procedures were chosen as for the investigation of other GABAA receptor subunit specific substances (e.g., Baur et al., 2005; Mol. Pharmacol. 68, 787-792).
Lobes of the ovary containing the follicles were obtained by surgical procedures from female Xenopus laevis. Follicles were singled out using a platinum loop. Fifty nL of cRNA solution at a ratio of αx:β2:γ2 of 1:1:5 (3.3-10 nM αx (x=1,2,3,5); 3.3-10 nM β2; 16.7-50 nM γ2) (Boileau et al., 2002; Neuropharmacology 43, 695-700) were microinjected into Xenopus follicles. Several hours after microinjection the follicles were freed of follicular layers and adhering connective tissue by a collagenase/hypertonic shock procedure (Sigel, 1987; J. Physiol.(Land) 386, 73-90). Oocytes were kept at constant 18° C. until measurement (1-4 days) in a modified Barth solution (88 mM NaCl, 1 mM KCl, 2.4 mM NaHCO3, 10 mM Hepes-NaOH (pH 7.5), 0.82 mM MgSO4×7H2O, 0.34 mM Ca(NO3)2×4H2O, 0.41 mM CaCl2×2H2O, 100 U Penicillin/mL, 100 μg Streptomycin/mL, sterile filtered).
Currents were measured using a home-built amplifier in combination with a xy-recorder or were digitized using a MacLab/200 (AD Instruments) and stored on a computer. Xenopus oocytes were voltage clamped using the two-electrode voltage clamp technique (electrode resistance about 0.8 MΩ) at −80 mV. The medium contained 90 mM NaCl, 1 mM KCl, 1 mM MgCl2, 1 mM CaCl2, 10 mM Na-Hepes (pH 7.4) and 0.5% DMSO.
GABA was applied for 20-50 seconds without or in combination with other drugs and a washout period of 4 minutes was allowed to ensure full recovery from desensitization, which was experimentally determined. The perfusion solution (6 mL/min) was applied through a glass capillary with an inner diameter of 1.35 mm, the mouth of which was placed about 0.4 mm from the surface of the oocyte. The rate of solution change under our conditions has been estimated 70% within less than 0.5 s (Sigel et al., 1990; Neuron 5, 703-711). The entire perfusion system and the assay chamber were cleaned between drug applications by washing with DMSO.
Data is given as mean±SD, except in the figures where data is shown for clarity as mean±SEM. Current stimulation was calculated as follows: stimulation (%)=((I(GABA+modulator)−I(GABA))/I(GABA))×100%, where I is the current amplitude. Where indicated, the stimulation was standardized to the stimulation by 1 μM diazepam (100%). To obtain FIGS. 1-4, values for current stimulation obtained at a given concentration of modulator at a given subunit combination were averaged. The data points were fitted with the equation stimulation=efficacy/(1+(potency/concentration of modulator)). The values given in the Tables (Summary) are obtained by fitting individual curves and subsequently averaging efficacy and potency.
GABA (EC3-5) was applied to an oocyte expressing α1β2γ2 GABAA receptors several times until the current response was stable. The GABA (EC3-5) refers to the effective concentration of GABA, which produces a response that is 3-5% of the maximal response to high concentrations of GABA. Such a low concentration of GABA is chosen in order to better see the potentiating effect of positive allosteric modulators.
GABA was then applied in combination with various concentrations of the compound of formula (II) between 0.3 nM and 3,000 nM to produce a cumulative concentration response curve. […] In each batch of oocytes the stimulation by 1 μM diazepam was determined in five ocytes, extent of stimulation averaged and defined as 100%. Where indicated, stimulation by the compound of formula (II) in each batch of ocytes was expressed as a percentage of this value in the corresponding batch.
GABA (EC3-5) was applied to an oocyte expressing α1β2γ2 GABAA receptors several times until the current response was stable.

[2] = Example 3: randomized double-blind placebo-controlled crossover study in primary insomnia (PSG, patient reports, DSST, safety); format: in vivo, human
Protocol: A randomized, multicenter, double-blind, placebo-controlled crossover study was conducted to assess the efficacy of the 1.5 mg and 2.5 mg doses of the compound of formula (II) in the treatment of primary insomnia in adult patients. Specifically, one of the objectives of the study was to assess the efficacy of 1.5 mg and 2.5 mg doses on polysomnogram (PSG) and patient-reported measures of sleep. Also, the study was aimed at assessing the safety of 1.5 mg and 2.5 mg doses.
The study in this Example was performed for two consecutive nights with a 5-12 day washout between each period. The dosing was conducted 30 minutes before lights were turned out for the night via oral administration of a hard gelatine capsule containing the compound of formula (II) in powder form. PSG was taken for 8 hours from “lights out” on nights 1 and 2 of each treatment period. Centralized scoring of PSG was used. Testing for residual effects using the Digit Symbol Substitution Test (DSST) was performed at least 30 minutes after wake time (9 hours post dose).
[…] These subjects' typical bed time was between 9 pm and 1 am with at least 7 hours in bed. These subjects reported sleep latency of at least 45 minutes and total sleep time (TST) of not more than 6.5 hours in a sleep diary for at least 3 of 7 nights.
Mean wake time after sleep onset (WASO) of the patients was at least 40 minutes and mean TST was 240-420 minutes.

CN(C)Cc1nc(-c2ncn3c2CN(C)C(=O)c2c(Cl)cccc2-3)no1 [compound of formula (II), 7-chloro-3-(5-dimethylaminomethyl-[1,2,4]oxadiazol-3-yl)-5-methyl-4,5-dihydro-imidazo[1,5-a][1,4]benzodiazepine-6-one]
Intrinsic activity / type of allosteric modulation ([1]; GABAA receptor benzodiazepine site, relative to diazepam): partial positive allosteric modulator; also recorded: partial agonist | Receptor subtype preference ([1]; at concentrations <100 nM, in comparison to α5β2γ2, α3β2γ2 and α2β2γ2): preference for α1β2γ2 GABAA receptors | EC50 ([1]; α1β2γ2, GABA EC3-5, mean±SD of individually fitted curves, read-out: Potency): 18 ± 6 nM | Standardized Efficacy ([1]; α1β2γ2, standardized to stimulation by 1 μM diazepam (100%)): 62 ± 10% (n = 4) | Efficacy ([1]; α1β2γ2, unstandardized current stimulation): 123 ± 19% (n = 4) | increase of TST compared to placebo ([2]; 1.5 mg): 33.1 min | reduction of LPS compared to placebo ([2]; 1.5 mg): 17.0 min | reduction of WASO compared to placebo ([2]; 1.5 mg): 16.7 min | reduction of total wake time in hours 5-8 ([2]; 1.5 mg): 10.8 min | Number of Patients with Any Event ([2]; 1.5 mg (n = 71)): 13 | Number of Patients with Headache ([2]; 1.5 mg (n = 71)): 3 | Number of Patients with Somnolence ([2]; 1.5 mg (n = 71)): 2 | Patients with Any Event, percent ([2]; 1.5 mg (n = 71)): 18.3% | Patients with Headache, percent ([2]; 1.5 mg (n = 71)): 4.2% | Patients with Somnolence, percent ([2]; 1.5 mg (n = 71)): 2.8% | safety and tolerability ([2]; 1.5 mg and 2.5 mg): safe and well-tolerated | WASO in the second half of the night (5-8 hours after lights out) ([2]; 1.5 mg and 2.5 mg, compared to placebo, p<0.0001): reduced WASO | patient-reported residual sedation effects ([2]; 1.5 mg or 2.5 mg compared with placebo): no patient-reported residual sedation effects | Adjusted mean LPS (min), p value ([2]; 1.5 mg vs. placebo): p < 0.0001 | Adjusted mean TST (min), p value ([2]; 1.5 mg vs. placebo): p < 0.0001 | Adjusted mean WASO (min), p value ([2]; 1.5 mg vs. placebo): p < 0.0001 | Adjusted mean total wake time, 2nd half (min), p value ([2]; 1.5 mg vs. placebo): p = 0.0008 | increase of TST compared to placebo ([2]; 2.5 mg): 45.0 min | reduction of LPS compared to placebo ([2]; 2.5 mg): 20.7 min | reduction of WASO compared to placebo ([2]; 2.5 mg): 25.7 min | reduction of total wake time in hours 5-8 ([2]; 2.5 mg): 16.2 min | Number of Patients with Any Event ([2]; 2.5 mg (n = 71)): 18 | Number of Patients with Headache ([2]; 2.5 mg (n = 71)): 6 | Number of Patients with Somnolence ([2]; 2.5 mg (n = 71)): 4 | Patients with Any Event, percent ([2]; 2.5 mg (n = 71)): 25.4% | Patients with Headache, percent ([2]; 2.5 mg (n = 71)): 8.5% | Patients with Somnolence, percent ([2]; 2.5 mg (n = 71)): 5.6% | Adjusted mean LPS (min), p value ([2]; 2.5 mg vs. placebo): p < 0.0001 | Adjusted mean TST (min), p value ([2]; 2.5 mg vs. placebo): p < 0.0001 | Adjusted mean WASO (min), p value ([2]; 2.5 mg vs. placebo): p < 0.0001 | Adjusted mean total wake time, 2nd half (min), p value ([2]; 2.5 mg vs. placebo): p < 0.0001 | total time awake during each hour after dosing ([2]; 2.5 mg, hour 7 p 0.0577): statistically significant reduction each hour, except hour 7 | REM sleep ([2]; 1.5 and 2.5 mg): only a small effect on REM sleep | patient-reported sleep quality ([2]; 1.5 and 2.5 mg): marked improvement in sleep quality | sleep architecture ([2]; 1.5 and 2.5 mg): equivalent to the natural sleep architecture | slow wave sleep ([2]; 1.5 and 2.5 mg): no impairment of slow wave sleep | Digit Symbol Substitution Test (DSST) scores ([2]; 9 hours after dose, compared with placebo): only slightly lower
